For one test, the target named is hPAD4 (Homo sapiens, UniProt Q9UM07). Description: hPAD4 RFMS (RapidFire mass spectrometry) PAD4 inhibition assay.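 For hPAD4 RFMS pIC50: grade E means pIC50 at most 4 and F means pIC50 4.0 to 5.0.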 Type of test: biochemical. As to conditions: hPAD4 enzyme, RFMS readout; for IC50: pIC50=−log(IC50), read-out: hPAD4 RFMS pIC50 (converted); for pIC50: read-out: hPAD4 RFMS IC50. How it is done: (§1) Compounds of the present invention were assayed as inhibitors of PAD4 using the assay protocol described below.
hPAD4, sequence (Q9UM07 whole entry): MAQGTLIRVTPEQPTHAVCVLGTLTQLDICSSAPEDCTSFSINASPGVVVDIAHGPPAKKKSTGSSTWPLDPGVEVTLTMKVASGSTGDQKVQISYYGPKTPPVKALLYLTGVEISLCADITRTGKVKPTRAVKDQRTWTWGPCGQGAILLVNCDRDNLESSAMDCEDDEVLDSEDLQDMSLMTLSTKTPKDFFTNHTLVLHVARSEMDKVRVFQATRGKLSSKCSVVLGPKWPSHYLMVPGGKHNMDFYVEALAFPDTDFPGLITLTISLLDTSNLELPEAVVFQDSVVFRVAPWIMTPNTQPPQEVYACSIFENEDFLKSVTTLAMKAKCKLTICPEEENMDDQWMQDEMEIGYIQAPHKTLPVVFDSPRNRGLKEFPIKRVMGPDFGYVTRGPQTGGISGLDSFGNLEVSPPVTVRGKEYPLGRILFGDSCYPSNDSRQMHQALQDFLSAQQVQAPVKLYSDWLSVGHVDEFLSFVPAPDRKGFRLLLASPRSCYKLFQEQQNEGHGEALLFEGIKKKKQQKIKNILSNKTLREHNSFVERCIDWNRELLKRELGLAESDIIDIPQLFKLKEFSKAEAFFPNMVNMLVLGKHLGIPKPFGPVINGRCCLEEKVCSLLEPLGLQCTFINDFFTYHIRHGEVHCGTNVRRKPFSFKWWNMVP
(§2) Compound stock solutions were stored at RT. […] Final assay conditions were as follows:
(§3) Total incubation time: 65 mins at 37° C.
(§4) Stop solution: 40 μl 5% TCA in ACN
(§5) The compound numbers correspond to the compound numbers in Table 1. […] The term pIC50=−log(IC50). […] “NA” stands for “not assayed.”

For another test, the target named is mPAD4 (Mus musculus, UniProt Q9Z183). Description: mPAD4 RFMS PAD4 inhibition assay.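 For mPAD4 RFMS pIC50: grade E means pIC50 at most 4 and F means pIC50 4.0 to 5.0.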 Type of test: biochemical. The following applies: mPAD4, RFMS readout; for IC50: pIC50=−log(IC50), read-out: mPAD4 RFMS pIC50 (converted); for pIC50: read-out: mPAD4 RFMS IC50. The procedure:
as §1, §2, §3, §4, §5

pIC50: −log10 of the molar value. Counter-ions that a name gives are not always drawn. Like-named read-outs stand apart in the source and are kept apart here.

mPAD4, sequence (Q9Z183 whole entry): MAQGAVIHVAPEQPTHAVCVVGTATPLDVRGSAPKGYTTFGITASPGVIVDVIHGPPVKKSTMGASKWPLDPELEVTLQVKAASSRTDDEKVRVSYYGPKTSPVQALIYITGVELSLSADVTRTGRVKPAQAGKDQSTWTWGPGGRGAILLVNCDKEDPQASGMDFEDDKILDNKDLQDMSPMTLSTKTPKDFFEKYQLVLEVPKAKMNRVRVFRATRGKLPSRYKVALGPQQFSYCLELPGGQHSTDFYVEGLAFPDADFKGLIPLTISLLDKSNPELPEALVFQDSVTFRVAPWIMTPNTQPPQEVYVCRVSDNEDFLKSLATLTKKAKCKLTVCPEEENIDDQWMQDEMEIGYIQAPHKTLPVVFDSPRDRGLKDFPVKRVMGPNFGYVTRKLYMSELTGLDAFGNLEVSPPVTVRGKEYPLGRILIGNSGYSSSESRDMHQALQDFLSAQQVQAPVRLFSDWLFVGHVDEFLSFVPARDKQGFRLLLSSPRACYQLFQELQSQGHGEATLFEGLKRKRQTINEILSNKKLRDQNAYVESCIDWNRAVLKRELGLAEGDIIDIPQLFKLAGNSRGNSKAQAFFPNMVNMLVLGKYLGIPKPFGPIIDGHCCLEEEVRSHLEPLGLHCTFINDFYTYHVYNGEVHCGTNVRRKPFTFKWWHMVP

Turning to `COc1cc(C(=O)N2CC3CCC2[C@@H]3N)cc2nc(-c3cc4cccnc4n3CC3CC3)n(C)c12` (stereo partly drawn) [Compound I-30], on hPAD4, the IC50 is 10 to 100 µM and the pIC50 is under 5.00. Also, at mPAD4, the IC50 was 10 to 100 µM and the pIC50 is under 5.00.

With `COc1cc(C(=O)N2CC3CCC2[C@H]3N)cc2nc(-c3cc4cccnc4n3CC3CC3)n(C)c12` (stereo partly drawn) [Compound I-31], on hPAD4, the IC50 is under 1 µM and the pIC50 was over 6.00. At mPAD4, the IC50 is under 1 µM and the pIC50 was over 6.00.

Take `COc1cc(C(=O)N2CC3(CNCCO3)C2)cc2nc(-c3cc4cccnc4n3CC3CC3)n(C)c12` [Compound I-32]: at hPAD4, the IC50 is over 100 µM and the pIC50 was under 5.00. Also, on mPAD4, the IC50 is 10 to 100 µM and the pIC50 is under 5.00.

Regarding `COc1ccc2cc(-c3nc4cc(C(=O)N5CCC[C@@H](N)C5)cc(OC)c4n3C)n(CC3CC3)c2n1` [Compound I-33, (3R)-1-{2-[1-(cyclopropylmethyl)-6-methoxy-1H-pyrrolo[2,3-b]pyridin-2-yl]-7-methoxy-1-methyl-1H-1,3-benzodiazole-5-carbonyl}piperidin-3-amine], at hPAD4, the IC50 was under 1 µM and the pIC50 is over 6.00. On mPAD4, the IC50 was under 1 µM and the negative-log IC50 (pIC50) was over 6.00.

As to `COc1cc(C(=O)N2C[C@@H](N)C[C@H](F)C2)cc2nc(-c3cc4cccnc4n3CC3CC3)n(C)c12` [Compound I-34], on hPAD4, the IC50 was under 1 µM and the pIC50 is over 6.00. In addition, at mPAD4, the IC50 is under 1 µM and the pIC50 is over 6.00.

Take `COc1cc(C(=O)N2C[C@H](N)C[C@@H](F)C2)cc2nc(-c3cc4cccnc4n3CC3CC3)n(C)c12` [Compound I-35]: the IC50 on hPAD4 and on mPAD4 was under 1 µM each time. For the same compound, the pIC50 on hPAD4 and on mPAD4 was over 6.00 each time.

In the case of `COc1cc(C(=O)N2C[C@@H](N)CC[C@H]2C)cc2nc(-c3cc4cccnc4n3CC3CC3)n(C)c12` [Compound I-36], on hPAD4, the IC50 is under 1 µM and the pIC50 is over 6.00. Also, at mPAD4, the IC50 is under 1 µM and the pIC50 is over 6.00.

With `Cn1c(-c2cc3cccnc3n2CC2CC2)nc2cc(C(=O)N3CCCC4NCCC43)ccc21` (stereo not drawn) [Compound I-52], on hPAD4, the IC50 was 10 to 100 µM and the pIC50 was under 5.00. At mPAD4, the IC50 is 10 to 100 µM and the pIC50 is under 5.00.

For the compound `Cn1c(-c2cc3cccnc3n2CC2CC2)nc2cc(C(=O)N3CC[C@H](F)[C@@H](N)C3)ccc21` [Compound I-54], the IC50 was 1 to 10 µM at hPAD4 and 10 to 100 µM on mPAD4. In addition, the pIC50 is 5.00 to 5.30 at hPAD4 and under 5.00 at mPAD4.

With `Cn1c(-c2cc3cccnc3n2CC2CC2)nc2cc(C(=O)N3CC[C@@H](F)[C@H](N)C3)ccc21` [Compound I-55], at hPAD4, the IC50 is 10 to 100 µM and the pIC50 is under 5.00. For the same compound, on mPAD4, the IC50 is 10 to 100 µM and the pIC50 was under 5.00.

Regarding `COc1cc(C(=O)N2CCC(F)C(N)C2)cc2nc(-c3cc4cccnc4n3CC3CC3)n(C)c12` (stereo not drawn) [Compound I-56], on hPAD4, the IC50 is 1 to 10 µM and the pIC50 was 5.30 to 6.00. At mPAD4, the IC50 was 1 to 10 µM and the pIC50 is 5.30 to 6.00.

For `Cn1c(-c2cc3cccnc3n2CC2CC2)nc2cc(C(=O)N3CCC[C@@H](N)C3)cc(OCC(F)(F)F)c21` [Compound I-59], the IC50 at hPAD4 was 1 to 10 µM; on mPAD4, under 1 µM. Also, the negative logarithm of the IC50 (pIC50) on hPAD4 was 5.30 to 6.00; at mPAD4, over 6.00.

In the case of `Cn1c(-c2cc3cccnc3n2CC2CC2)nc2cc(C(=O)N3C[C@@H](N)C[C@H](F)C3)ccc21` [Compound I-66], at hPAD4, the IC50 is 1 to 10 µM and the pIC50 is over 6.00. On mPAD4, the IC50 was 1 to 10 µM and the pIC50 was 5.30 to 6.00.

For `COc1cc2c(cc1C(=O)N1CCC[C@@H](N)C1)nc(-c1cc3cccnc3n1CC1CC1)n2C` [Compound I-68, (3R)-1-{2-[1-(cyclopropylmethyl)-1H-pyrrolo[2,3-b]pyridin-2-yl]-6-methoxy-1-methyl-1H-1,3-benzodiazole-5-carbonyl}piperidin-3-amine hydrochloride], at hPAD4, the IC50 is 1 to 10 µM and the pIC50 was 5.00 to 5.30. Besides, on mPAD4, the IC50 was 10 to 100 µM and the pIC50 is under 5.00.

Take `CC(=O)Nc1ccnc2c1cc(-c1nc3cc(C(=O)N4CCC[C@@H](N)C4)ccc3n1C)n2CC1CC1` [Compound I-69, N-(2-{5-[(3R)-3-Aminopiperidine-1-carbonyl]-1-methyl-1H-1,3-benzodiazol-2-yl}-1-(cyclopropylmethyl)-1H-pyrrolo[2,3-b]pyridin-4-yl)acetamide]: at hPAD4, the IC50 is 1 to 10 µM and the pIC50 was over 6.00. On mPAD4, the IC50 is 10 to 100 µM and the pIC50 is under 5.00.

Take `COc1ccc2cc(-c3nc4cc(C(=O)N5CCC[C@@H](N)C5)ccc4n3C)n(CC3CC3)c2n1` [Compound I-70, (3R)-1-{2-[1-(Cyclopropylmethyl)-6-methoxy-1H-pyrrolo[2,3-b]pyridin-2-yl]-1-methyl-1H-1,3-benzodiazole-5-carbonyl}piperidin-3-amine]: at hPAD4, the IC50 is under 1 µM and the pIC50 is over 6.00. At mPAD4, the IC50 is under 1 µM and the pIC50 was over 6.00.

For the compound `CCn1c(-c2cc3cccnc3n2CC2CC2)nc2cc(C(=O)N3C[C@@H](N)C[C@H](F)C3)cc(OC)c21` [Compound I-71], on hPAD4, the IC50 was 1 to 10 µM and the pIC50 is 5.30 to 6.00. Further, on mPAD4, the IC50 is under 1 µM and the pIC50 was over 6.00.

`Cn1c(-c2cc3cccnc3n2CC2CC2)nc2cc(C(=O)N3C[C@@H](N)C[C@H](F)C3)cc(OCC(F)F)c21` [Compound I-72]: on hPAD4, the IC50 was 1 to 10 µM and the pIC50 is 5.30 to 6.00. For the same compound, on mPAD4, the IC50 was under 1 µM and the pIC50 was over 6.00.

As to `Cn1c(-c2cc3cccnc3n2CC2CC2)nc2cc(C(=O)N3C[C@@H](N)C[C@H](F)C3)cc(OC(F)F)c21` [Compound I-73], the IC50 on hPAD4 was 1 to 10 µM; at mPAD4, under 1 µM. For the same compound, the pIC50 at hPAD4 is 5.30 to 6.00; at mPAD4, over 6.00.

Regarding `COc1cc(C(=O)N2C[C@@H]3[C@@H](N)[C@@H]3C2)cc2nc(-c3cc4cccnc4n3CC3CC3)n(C)c12` [Compound I-76], on hPAD4, the IC50 is 10 to 100 µM and the pIC50 is under 5.00. On mPAD4, the IC50 is 10 to 100 µM and the pIC50 was under 5.00.

On to `COc1cc(C(=O)N2CC3CCC2C3N)cc2nc(-c3cc4cccnc4n3CC3CC3)n(C)c12` (stereo not drawn) [Compound I-81], for which the IC50 on hPAD4 and at mPAD4 was under 1 µM each time. For the same compound, the pIC50 on hPAD4 and on mPAD4 was over 6.00 each time.

Take `COc1cc(C(=O)N2CC(O)(C3(N)CCCC3)C2)cc2nc(-c3cc4cccnc4n3CC3CC3)n(C)c12` [Compound I-84]: the IC50 on hPAD4 and on mPAD4 was 10 to 100 µM in each case. Also, the pIC50 at hPAD4 and on mPAD4 was under 5.00 throughout.

Take `COc1cc(C(=O)N2CC3(CCC3N)C2)cc2nc(-c3cc4cccnc4n3CC3CC3)n(C)c12` (stereo not drawn) [Compound I-85]: at hPAD4, the IC50 was 10 to 100 µM and the pIC50 was under 5.00. Besides, on mPAD4, the IC50 was 10 to 100 µM and the pIC50 is under 5.00.

For the compound `COc1cc(C(=O)N2C[C@H](N)CC[C@@H]2C)cc2nc(-c3cc4cccnc4n3CC3CC3)n(C)c12` [Compound I-87], at hPAD4, the IC50 was under 1 µM and the pIC50 is over 6.00. In addition, on mPAD4, the IC50 was under 1 µM and the pIC50 was over 6.00.

For the compound `COc1cc(C(=O)N2C[C@H](N)CC[C@H]2C)cc2nc(-c3cc4cccnc4n3CC3CC3)n(C)c12` [Compound I-88], at hPAD4, the IC50 was 10 to 100 µM and the pIC50 is under 5.00. For the same compound, at mPAD4, the IC50 was 1 to 10 µM and the pIC50 was 5.00 to 5.30.

For `COc1cc(C(=O)N2C[C@@H](N)CC[C@@H]2C)cc2nc(-c3cc4cccnc4n3CC3CC3)n(C)c12` [Compound I-89], the IC50 on hPAD4 and at mPAD4 was 10 to 100 µM each time. Moreover, the pIC50 at hPAD4 and on mPAD4 was under 5.00 throughout.

With `COc1cc(C(=O)N2CC[C@H](F)[C@H](N)C2)cc2nc(-c3cc4cccnc4n3CC3CC3)n(C)c12` [Compound I-90], on hPAD4, the IC50 is 1 to 10 µM and the pIC50 was 5.30 to 6.00. For the same compound, on mPAD4, the IC50 was 1 to 10 µM and the pIC50 was 5.30 to 6.00.

As for `COc1cc(C(=O)N2CC[C@@H](F)[C@@H](N)C2)cc2nc(-c3cc4cccnc4n3CC3CC3)n(C)c12` [Compound I-91], on hPAD4, the IC50 is under 1 µM and the pIC50 was over 6.00. Also, on mPAD4, the IC50 was under 1 µM and the pIC50 was over 6.00.

With `CCn1c(-c2cc3ccc(OC)nc3n2CC2CC2)nc2cc(C(=O)N3C[C@@H](N)C[C@H](F)C3)cc(OC)c21` [Compound I-92], at hPAD4, the IC50 is 1 to 10 µM and the pIC50 was 5.30 to 6.00. Moreover, on mPAD4, the IC50 was under 1 µM and the pIC50 is over 6.00.

On to `COc1cc(C(=O)N2C[C@@H](N)C[C@H](F)C2)cc2nc(-c3cc4cccnc4n3CC3(C)CC3)n(C)c12` [Compound I-93, (3S,5S)-5-Fluoro-1-(7-methoxy-1-methyl-2-{1-[(1-methylcyclopropyl)methyl]-1H-pyrrolo[2,3-b]pyridin-2-yl}-1H-1,3-benzodiazole-5-carbonyl)piperidin-3-amine], for which, at hPAD4, the IC50 was 1 to 10 µM and the pIC50 was 5.30 to 6.00. Further, at mPAD4, the IC50 is 1 to 10 µM and the pIC50 is 5.30 to 6.00.

Values taken from patent US9963448B2, “Bicyclic inhibitors of PAD4” (Padlock Therapeutics, Inc., priority 2015, dated 2018).
